One assay addresses PDE4. Put plainly: Inhibition of PDE isoenzymes: PDE4 (cAMP-specific), cytosol of human polymorphonuclear leukocytes, cAMP as substrate. The class given is biochemical. The conditions noted are these: cytosol of human PMNL; 0.5 μM cAMP; motapizone (1 μM) present; pH 7.4, 37° C., 15 min.
The next assay concerns the target T1, PDE3 (Homo sapiens, UniProt Q14432).
T1 construct: were investigated in homogenates of human blood platelets; from tissue; host or cells: homogenates of human blood platelets
Put plainly: Inhibition of PDE isoenzymes: PDE3 (cGMP-inhibited), homogenates of human blood platelets. The class given is biochemical. As to conditions: cAMP or cGMP as substrate, 0.5 μM, pH 7.4, 37° C., 15 min; for IC50: read-out: PDE3 -log IC50 (converted).

Structures can show the parent of a compound that is named as a salt.

T1 sequence (Q14432 whole entry): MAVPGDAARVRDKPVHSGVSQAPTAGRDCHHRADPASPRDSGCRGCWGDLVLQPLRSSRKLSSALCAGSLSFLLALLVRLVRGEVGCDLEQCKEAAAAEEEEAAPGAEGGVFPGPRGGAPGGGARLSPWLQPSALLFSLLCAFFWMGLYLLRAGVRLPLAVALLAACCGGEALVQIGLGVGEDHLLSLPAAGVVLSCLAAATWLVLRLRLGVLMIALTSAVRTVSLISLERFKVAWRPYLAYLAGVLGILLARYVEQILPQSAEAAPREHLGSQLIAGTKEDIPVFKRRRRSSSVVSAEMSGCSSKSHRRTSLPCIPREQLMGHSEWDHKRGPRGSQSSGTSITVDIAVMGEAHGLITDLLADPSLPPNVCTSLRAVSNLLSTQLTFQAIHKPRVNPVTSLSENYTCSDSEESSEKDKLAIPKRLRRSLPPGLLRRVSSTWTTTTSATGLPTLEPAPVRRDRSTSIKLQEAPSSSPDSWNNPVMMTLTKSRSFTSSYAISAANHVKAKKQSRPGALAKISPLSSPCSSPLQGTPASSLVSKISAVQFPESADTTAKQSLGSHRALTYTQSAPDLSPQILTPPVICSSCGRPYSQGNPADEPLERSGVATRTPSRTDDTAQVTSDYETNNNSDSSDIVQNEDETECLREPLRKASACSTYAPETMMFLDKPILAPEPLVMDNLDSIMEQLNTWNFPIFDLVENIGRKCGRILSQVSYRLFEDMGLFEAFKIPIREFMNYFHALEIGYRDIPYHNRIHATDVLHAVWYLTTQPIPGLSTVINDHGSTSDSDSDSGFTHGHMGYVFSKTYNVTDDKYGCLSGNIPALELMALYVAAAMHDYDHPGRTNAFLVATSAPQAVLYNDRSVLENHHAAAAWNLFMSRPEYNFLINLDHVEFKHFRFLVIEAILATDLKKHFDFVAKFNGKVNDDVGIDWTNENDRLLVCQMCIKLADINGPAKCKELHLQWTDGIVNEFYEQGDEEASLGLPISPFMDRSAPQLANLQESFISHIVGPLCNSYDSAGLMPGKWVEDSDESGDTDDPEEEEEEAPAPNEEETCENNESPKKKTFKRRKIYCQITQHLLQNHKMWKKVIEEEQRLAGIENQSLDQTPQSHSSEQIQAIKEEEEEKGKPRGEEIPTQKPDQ

What is called IC50 is the point on the concentration scale where inhibition reaches its midpoint. Consider `COc1cc2c(cc1OC)[C@@H]1CN(C)CC[C@@H]1N=C2c1ccc(-c2nn[nH]n2)cc1` (single isomer, unassigned) [Compound 1, (-)-cis-8,9-Dimethoxy-2-methyl-6-[4-(1H- and 2H-tetrazol-5-yl)phenyl]-1,2,3,4,4a,10b-hexahydrobenzo[c][1,6]naphthyridine], for which the “PDE4 -log IC50” value at PDE4 was determined as 6.42 mol/l. In addition, the IC50 at PDE3 is 166 nM.

For `CCOc1cc2c(cc1OCC)[C@@H]1CN(C)CC[C@@H]1N=C2c1ccc(-c2nnn(CC3CCCCC3)n2)cc1` (single isomer, unassigned) [Compound 8, (-)-cis-8,9-Diethoxy-2-methyl-6-[4-(2H-2-cyclohexylmethyltetrazol-5-yl)phenyl]-1,2,3,4,4a,10b-hexahydrobenzo[c][1,6]naphthyridine hydrochloride], the “PDE4 -log IC50” value on PDE4 was 7.64 mol/l. Moreover, the IC50 at PDE3 was 309 nM.

On to `COc1ccc(Cn2nnc(-c3ccc(C4=N[C@H]5CCN(C)C[C@H]5c5cc(OC)c(OC)cc54)cc3)n2)cc1` (single isomer, unassigned) [Compound 7, (-)-cis-8,9-Dimethoxy-2-methyl-6-[[4-[2H-2-(4-methoxybenzyl)tetrazol-5-yl]phenyl]]-1,2,3,4,4a,10b-hexahydrobenzo[c][1,6]naphthyridine hydrochloride], for which the “PDE4 -log IC50” value at PDE4 is on record as 6.74 mol/l. Also, the IC50 on PDE3 was 148 nM.

On to `CCOc1cc2c(cc1OCC)[C@@H]1CN(C)CC[C@@H]1N=C2c1ccc(-c2nnn(C)n2)cc1` (single isomer, unassigned) [Compound 6, (-)-cis-8,9-Diethoxy-2-methyl-6-[4-(2H-2-methyltetrazol-5-yl)phenyl]-1,2,3,4,4a,10b-hexahydrobenzo[c][1,6]naphthyridine hydrochloride], for which the “PDE4 -log IC50” value on PDE4 turned out to be 7.26 mol/l. For the same compound, the “PDE3 -log IC50” value on PDE3 was 6.52 mol/l.

In the case of `COc1cc2c(cc1OC)[C@@H]1CN(C)CC[C@@H]1N=C2c1ccc(-c2nnn(C)n2)cc1` (single isomer, unassigned) [Compound 4, (-)-cis-8,9-Dimethoxy-2-methyl-6-[4-(2H-2-methyltetrazol-5-yl)phenyl]-1,2,3,4,4a,10b-hexahydrobenzo[c][1,6]naphthyridine], the “PDE4 -log IC50” value on PDE4 is reported as 5.92 mol/l. The IC50 at PDE3 was 355 nM.

Turning to `CCCn1nnc(-c2ccc(C3=N[C@H]4CCN(C)C[C@H]4c4cc(OCC)c(OC)cc43)cc2)n1` (single isomer, unassigned) [Compound 16, (-)-cis-9-Ethoxy-8-methoxy-2-6-[4-(2H-2-propyltetrazol-5-yl)-phenyl]-1,2,3,4,4a,10b-hexahydrobenzo[c][1.6]naphthyridine hydrochloride], the “PDE4 -log IC50” value at PDE4 is listed as 7.94 mol/l. Moreover, the concentration for half-maximal inhibition (IC50) at PDE3 is 219 nM.

Consider `CCOc1cc2c(cc1OC)C(c1ccc(-c3nn[nH]n3)cc1)=N[C@H]1CCN(C)C[C@@H]21` (single isomer, unassigned) [Compound 18, (-)-cis-9-Ethoxy-8-methoxy-2-methyl-6-[4-(1H- and 2H-2-tetrazol-5-yl)-phenyl]-1,2,3,4,4a,10b-hexahydrobenzo[c][1.6]naphthyridine], for which, on PDE4, the “PDE4 -log IC50” value came out at 7.81 mol/l. For the same compound, the IC50 at PDE3 is 145 nM.

Regarding `CCOc1cc2c(cc1OC)[C@@H]1CN(C)CC[C@@H]1N=C2c1ccc(-c2nnn(CC)n2)cc1` (single isomer, unassigned) [Compound 10, (-)-cis-8-Ethoxy-9-methoxy-2-methyl-6-[4-(2H-2-ethyltetrazol-5-yl)-phenyl]-1,2,3,4,4a,10b-hexahydrobenzo[c][1.6]naphthyridine hydrochloride], the “PDE4 -log IC50” value at PDE4 worked out at 6.08 mol/l. Also, the IC50 at PDE3 is 275 nM.

In the case of `CCOc1cc2c(cc1OCC)[C@@H]1CN(C)CC[C@@H]1N=C2c1cccc(-c2nnn(CC)n2)c1` (single isomer, unassigned) [Compound 11, (-)-cis-8,9-Diethoxy-2-methyl-6-[3-(2H-2-ethyltetrazol-5-yl)-phenyl]-1,2,3,4,4a,10b-hexahydrobenzo[c][1,6]naphthyridine hydrochloride], the “PDE4 -log IC50” value at PDE4 stood at 7.40 mol/l. In addition, the “PDE3 -log IC50” value on PDE3 is 5.66 mol/l.

For the compound `CCOc1cc2c(cc1OCC)[C@@H]1CN(C)CC[C@@H]1N=C2c1ccc(-c2nnn(CC)n2)cc1` (single isomer, unassigned) [Compound 3, (-)-cis-8,9-Diethoxy-2-methyl-6-[4-(2H-2-ethyltetrazol-5-yl)phenyl]-1,2,3,4,4a,10b-hexahydrobenzo[c][1,6]naphthyridine hydrochloride], the “PDE4 -log IC50” value on PDE4 is 7.64 mol/l. Further, at PDE3, the IC50 was 209 nM.

As to `CCOc1cc2c(cc1OCC)[C@@H]1CN(C)CC[C@@H]1N=C2c1ccc(-c2nnn(Cc3ccc(OC)cc3)n2)cc1` (single isomer, unassigned) [Compound 5, (-)-cis-8,9-Diethoxy-2-methyl-6-[[4-[2H-2-(4-methoxybenzyl)tetrazol-5-yl]-phenyl]]-1,2,3,4,4a,10b-hexahydrobenzo[c][1,6]naphthyridine hydrochloride], the “PDE4 -log IC50” value on PDE4 was determined as 8.03 mol/l. Moreover, at PDE3, the half-maximal inhibitory concentration (IC50) is 204 nM.

`CCOc1cc2c(cc1OCC)[C@@H]1CN(C)CC[C@@H]1N=C2c1ccc(-c2nn[nH]n2)cc1` (single isomer, unassigned) [Compound 17, (-)-cis-8.9-Diethoxy-2-methyl-6-[4-(1H- and 2H-2-tetrazol-5-yl)-phenyl]-1,2,3,4,4a,10b-hexahydrobenzo[c][1.6]naphthyridine]: at PDE4, the “PDE4 -log IC50” value worked out at 7.44 mol/l. In addition, on PDE3, the concentration for half-maximal inhibition (IC50) was 195 nM.

For the compound `CCOc1cc2c(cc1OC)C(c1ccc(-c3nnn(CC)n3)cc1)=N[C@H]1CCN(C)C[C@@H]21` (single isomer, unassigned) [Compound 9, (-)-(cis)-9-Ethoxy-8-methoxy-2-methyl-6-[4-(2H-2-ethyltetrazol-5-yl)phenyl]-1,2,3,4,4a,10b-hexahydrobenzo[c][1.6]naphthyridine], at PDE4, the “PDE4 -log IC50” value is on record as 7.96 mol/l. The IC50 on PDE3 was 148 nM.

For `CCCCCCn1nnc(-c2ccc(C3=N[C@H]4CCN(C)C[C@H]4c4cc(OCC)c(OC)cc43)cc2)n1` (single isomer, unassigned) [Compound 15, (-)-cis-9-Ethoxy-8-methoxy-2-methyl-6-[4-(2H-2-hexyltetrazol-5-yl)-phenyl]-1,2,3,4,4a,10-hexahydrobenzo[c][1.6]naphthyridine hydrochloride], the “PDE4 -log IC50” value on PDE4 is given as 8.24 mol/l. Besides, the half-inhibitory concentration (IC50) on PDE3 was 631 nM.

Take `CCn1nnc(-c2ccc(C3=N[C@H]4CCN(C)C[C@H]4c4cc(OC)c(OC)cc43)cc2)n1` (single isomer, unassigned) [Compound 2, (-)-cis-8,9-Dimethoxy-2-methyl-6-[4-(2H-2-ethyltetrazol-5-yl)phenyl]-1,2,3,4,4a,10b-hexahydrobenzo[c][1,6]naphthyridine hydrochloride]: the “PDE4 -log IC50” value on PDE4 worked out at 6.13 mol/l. Besides, the IC50 at PDE3 is 457 nM.

`CCOc1cc2c(cc1OC)C(c1cccc(-c3nnn(CC)n3)c1)=N[C@H]1CCN(C)C[C@@H]21` (single isomer, unassigned) [Compound 12, (-)-cis-9-Ethoxy-8-methoxy-2-methyl-6-[3-(2H-2-ethyltetrazol-5-yl)-phenyl]-1,2,3,4,4a,10b-hexahydrobenzo[c][1.6]naphthyridine hydrochloride]: the “PDE4 -log IC50” value at PDE4 came to 7.82 mol/l. Moreover, on PDE3, the IC50 was 708 nM.

(Values after patent publication US6143759A, “Tetrazoles” (BYK Gulden Lomberg Chemische Fabrik GmbH, priority 1997, dated 2000).)
